# In patent publication US7763439B2, “Two-photon absorbing dipyrrometheneboron difluoride dyes and their applications” (Arctic Diagnostics Oy, priority 2001, dated 2010):
# Key:
# [1] = Two-photon fluorescence yields of dyes in solution, laser with high two-photon excitation efficiency; format: physicochemical; settings: 100 nM dye in ethanol (R-PE in PBS pH 7.4); 1064 nm Nd:YAG microchip laser; normalised to Rhodamine B (100)
# Excerpt: (§1) FIG. 1 is a plot of two-photon excitations vs. illumination intensity. At low illumination intensities (A) excitation follows a quadratic dependence of the illumination intensity. In order to maximise the two-photon excited fluorescence a dye should be excited close to saturation level (B). At saturation level (C) almost all of the dye molecules become excited. FIG. 2a present alkyl substituted dipyrrometheneboron difluoride dyes described in examples 1-3 as compounds 1-3. FIGS. 2b and 2c present heteroaryl substituted dipyrrometheneboron difluoride dyes described in examples 4-9 as compounds 4-9. X^+ is a cationic counterion. FIG. 2d presents phenyl substituted dipyrrometheneboron difluoride dyes described in examples 10 and 11 as compounds 10 and 11. X^+ is a cationic counterion. FIGS. 2e and 2f present phenylethenyl substituted dipyrromethene-boron difluoride dyes described in examples 12 and 13 as compounds 12 and 13. X^+ is a cationic counterion. FIGS. 2g and 2h present thienyl substituted dipyrrometheneboron difluoride dyes with amino-, arylamino-, maleimide- and isothiocyanate reactive groups described in examples 14-17 as compounds 14-17. X^+ is a cationic counterion. FIG. 3 presents a linker compound 18 that is used to increase solubility of the dyes in aqueous solutions. X^+ is a cationic counter-ion. FIG. 4 is a plot of two-photon fluorescence signal vs. analyte (AFP) concentration in an immunoassay based on two-photon fluorescence as described in example 21. The AFP concentration 0 ng/ml is presented as a concentration of 0.1 ng/ml because of the logarithmic scale used in FIG. 4. FIG. 5 is an optical scheme of the instrument used in two-photon fluorescence measurements. A passively Q-switched Nd:YAG microchip laser 1 is used as an illumination source for two-photon excited fluorescence. The wavelength of the laser is 1064 nm, the pulse duration is 1 ns and the repetition rate is 20 kHz. The naturally diverging laser light beam is directed with a dichroich mirror 2 through an optical scanner unit 3 to the entrance aperture of the objective lens 4. The illumination at the entrance aperture is gaussian filling about 70% of the full aperture. The objective lens then focuses the illumination light into a special cuvette 5 that has a thin optical bottom (thickness 0.2 mm). The average optical output power reaching the sample is 50 mW. The size of the focal volume is about 1 femtoliter. The two-photon excited fluorescence signal in the range 540-700 nm is collected from the full aperture of the objective lens 4 and directed through the dichroich mirror 2 and the band pass filter 6 to the photomultiplier tube 7. In case of particle measurements, both the two-photon excited fluorescence light and the microparticle back-scattered (reflected) laser light are measured. The dichroich mirror 2 and the 2% beam splitting window 8 deflect the back-scattered light to the pinhole 9 making the detection of the scattering signal confocal. The detector for the scattering signal is a near infrared GaAs pin photodiode 10. The particles are continuously tracked by using a three-dimensional beam scanner 3. The xy-scanner is optomechanical and is positioned as close to the entrance aperture of the objective lens as possible. […] Optical pressure caused by the illuminating laser beam traps the particle and guides it through the centre of laser beam focus. The fluorescence signal is measured while the particle is in focus i.e. the back scattering signal exceeds the preset threshold. In addition to xy-scanning a further z-scanning movement is performed by moving the objective slowly in the axial direction. The amplitude of this movement is 150 μm and the movement is not stopped for particle measurement. Despite of slow z-scanning the particle remains in the focus on basis of optical trapping forces.
# The two-photon fluorescence yields were measured using experimental apparatus shown schematically in FIG. 5. […]
# [2] = Single pulse effect: z-response, 20% to 80% fluorescence intensity distance in dye solution; format: physicochemical; settings: dye solution between two microscope slides; two-photon excitation
# Excerpt: as §1
# The direct measurement of quenching by single pulse effect is difficult. […]
Molecule,Normalised two-photon fluorescence yield [1] [a.u.],20% to 80% fluorescence intensity distance values [2] [a.u.]
O=C(O)CCC1=[N+]2C(=Cc3c(-c4ccccc4)cc(-c4ccccc4)n3[B-]2(F)F)C=C1 [BODIPY 530/550],66,12.2
O=C(O)CCC1=[N+]2C(=Cc3ccc(-c4cccs4)n3[B-]2(F)F)C=C1 [BODIPY 558/568],101,13.7
CCN(CC)c1ccc2c(-c3ccccc3C(=O)O)c3ccc(=[N+](CC)CC)cc-3oc2c1.[Cl-] [Rhodamine B],100,16.5
"Glu-Tau-succinimide derivative of 4,4-difluoro-5-(2-thienyl)-1,3-dimethyl-4-bora-3a,4a-diaza-s-indacene-2-propionic acid [Compound 8]",219,12.6
R-phycoerythrin [R-PE],618,21.5
"4,4-difluoro-1,3,5,7-tetramethyl-6-carboxyethyl-4-bora-3a,4a-diaza-s-indacene-2-propionic acid succinimidylester [Compound 3]",18,11.5
